Assay [1] deals with chronic MPTP mouse model. In words: Traction test in chronic MPTP mouse model. The class given is in vivo, C57/BL mice. An excerpt:
Injection was implemented every 3.5 days for 5 weeks. MPTP was converted into metabolite MPP^+ by monoamine oxidase B in glial cells after crossing the blood-brain barrier. Due to its high affinity for dopamine transporters, MPP^+ can easily enter dopaminergic neurons. By inhibiting the toxic effect of the mitochondrial complex I, it can cause oxidative stress and break intracellular calcium homeostasis, thus causing the apoptosis or necrosis of dopaminergic neurons, and finally achieving the goal of simulating PD. Probenecid was used to prevent the rapid clearance and excretion of MPTP in the brain and kidneys. In the process of model preparation, the amount of probenecid had no significant influence on the content of the dopamine in the brain. After modeling, the mice were administrated (p.o.) with the drug for one month. The two forepaws of the mice were suspended on a horizontal metal wire (5 mm in diameter and 30 cm from the ground), and the time for mice to fall from the metal wire was recorded, wherein a time over 60 seconds was counted as 60 seconds. The mice were trained twice a day before the test. […] Finally, the scores were calculated and the time for the mice to fall from the metal wire were recorded, wherein a time over 60 seconds was counted as 60 seconds.

Assay [2] relates to chronic MPTP mouse model. In words: Morris water maze test in chronic MPTP mouse model. The class given is in vivo, C57/BL mice. Conditions: Compound A 100 mg/kg/d p.o. for one month; FIG. 2; 100 mg/kg/day. As for the experimental part:
A chronic MPTP (1-methyl-4-phenyl-1,2,3,6-tetrahydropyridine) mouse model was prepared to simulate PD. 250 mg/kg probenecid was intraperitoneally injected into the mice and then 25 mg/kg MPTP was intraperitoneally injected 0.5 hour later. Injection was implemented every 3.5 days for 5 weeks. MPTP was converted into metabolite MPP^+ by monoamine oxidase B in glial cells after crossing the blood-brain barrier. Due to its high affinity for dopamine transporters, MPP^+ can easily enter dopaminergic neurons. […]
The Morris water maze test can measure the changes in cognitive and memory ability. […] A camera with a display system was placed above the water maze, and the computer automatically tracked the timing and recorded the swimming track. […] The videos of the swimming path were recorded by the camera and computer, and the time of finding the platform from the entry point, namely the latency of escaping to the platform, was recorded. […] If they could not find and climb onto the platform in 90 seconds, the mice were artificially guided to find the platform and stay on the platform for 10 seconds, and the latency was recorded as 90 seconds. […] The latency was calculated on the average of four training sessions per day. […]

Structures are written as SMILES. “Also recorded” adds a separate entry of the source.

Consider `CCCN[C@H]1CCc2nc(N)sc2C1` [Pramipexol, reference compound], for which, in the assay on chronic MPTP mouse model [1] (Pramipexol 0.075 mg/kg/d p.o. for one month after modeling), the “suspension time compared with the chronic MPTP model” value is “decreased”.
Take `Cc1c(O)c(O)cc[n+]1[C@@H](CO)Cc1ccccc1` [Compound A, (R)-3,4-dihydroxyl-N-(1′-benzyl-2′-hydroxyethyl)-2-methyl pyridine chloride]: the “suspension time compared with the chronic MPTP model control group” value in the assay on chronic MPTP mouse model [1] (Compound A 25 mg/kg/d p.o. for one month after modeling) and in the assay with chronic MPTP mouse model [1] (Compound A 100 mg/kg/d p.o. for one month after modeling) was “no significant difference” each time. Moreover, in the assay with chronic MPTP mouse model [1] (Compound A 25 mg/kg/d p.o. for one month, FIG. 1), the “suspension score compared with the chronic MPTP model control group” value is on record as “increased”. Besides, the “muscle strength and coordination (conclusion)” value in the assay with chronic MPTP mouse model [1] (chronic MPTP mouse model, dose not given) was “tendency to improve muscle strength and coordination”. The “cognitive function of PD model animals (water maze latency)” value in the assay on chronic MPTP mouse model [2] is recorded as “may improve the cognitive function; also recorded: partially improve the cognitive function”.

The values are drawn from patent US12234208B2, “3,4-dihydroxy-n-(1′-benzyl-2′-hydroxyethyl)-2-methylpyridine chloride, and synthesis and use thereof” (HANGZHOU ZEDE PHARMA-TECH CO. LTD., priority 2020, dated 2025).
